27 molecules from US10975056B2 (GlaxoSmithKline Intellectual Property Development Limited, priority 2016, dated 2021) can be followed below.

SMILES strings stand for the structures. Several values for one entry are separate records, joined by “and”; a condition that tells them apart may be missing. Equal entries are not always repeated. Structures can show the parent of a compound that is named as a salt. Where two headings read alike, the source gives them in different places.

Assay [1] has as its system erythroid progenitor cells (EPCs). The assay can be described thus: Fetal hemoglobin (HbF) ELISA in day 7 erythroid progenitor cells.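 Note: for fetal hemoglobin induction normalized to vehicle-treated cells.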 The note with it: Homo sapiens, Erythroid progenitor cell, HbF ELISA, day 7 EPCs, 5 days; read-out: EPC ELISA (pEC50 category) (converted). The class given is cell-based, human. The method, boiled down: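 Read-out was OD450 from an HRP/TMB sandwich ELISA on lysates, normalized to DMSO-only control wells. Thawed day 7 EPCs from human marrow CD34+ cells had been treated for 5 days at 37° C with Compound A, 22 concentrations […].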

For another assay, the target named is DNMT1 (Homo sapiens, UniProt P26358). Put plainly: DNMT1 biochemical activity, breaklight assay and/or SPA assay.
Setting [2] is: binned activity in either the breaklight or the SPA assay.
[3] abbreviates: binned activity in either the breaklight or the SPA assay, read-out: DNMT1 BioChemical (pIC50 category) (converted).
Where [4] appears, read: breaklight assay and/or SPA assay, repeated experimental runs, read-out: average pIC50 against DNMT1 (converted).
Where [5] appears, read: breaklight assay and/or SPA assay, repeated experimental runs.

DNMT1, sequence (P26358 whole entry, looked up): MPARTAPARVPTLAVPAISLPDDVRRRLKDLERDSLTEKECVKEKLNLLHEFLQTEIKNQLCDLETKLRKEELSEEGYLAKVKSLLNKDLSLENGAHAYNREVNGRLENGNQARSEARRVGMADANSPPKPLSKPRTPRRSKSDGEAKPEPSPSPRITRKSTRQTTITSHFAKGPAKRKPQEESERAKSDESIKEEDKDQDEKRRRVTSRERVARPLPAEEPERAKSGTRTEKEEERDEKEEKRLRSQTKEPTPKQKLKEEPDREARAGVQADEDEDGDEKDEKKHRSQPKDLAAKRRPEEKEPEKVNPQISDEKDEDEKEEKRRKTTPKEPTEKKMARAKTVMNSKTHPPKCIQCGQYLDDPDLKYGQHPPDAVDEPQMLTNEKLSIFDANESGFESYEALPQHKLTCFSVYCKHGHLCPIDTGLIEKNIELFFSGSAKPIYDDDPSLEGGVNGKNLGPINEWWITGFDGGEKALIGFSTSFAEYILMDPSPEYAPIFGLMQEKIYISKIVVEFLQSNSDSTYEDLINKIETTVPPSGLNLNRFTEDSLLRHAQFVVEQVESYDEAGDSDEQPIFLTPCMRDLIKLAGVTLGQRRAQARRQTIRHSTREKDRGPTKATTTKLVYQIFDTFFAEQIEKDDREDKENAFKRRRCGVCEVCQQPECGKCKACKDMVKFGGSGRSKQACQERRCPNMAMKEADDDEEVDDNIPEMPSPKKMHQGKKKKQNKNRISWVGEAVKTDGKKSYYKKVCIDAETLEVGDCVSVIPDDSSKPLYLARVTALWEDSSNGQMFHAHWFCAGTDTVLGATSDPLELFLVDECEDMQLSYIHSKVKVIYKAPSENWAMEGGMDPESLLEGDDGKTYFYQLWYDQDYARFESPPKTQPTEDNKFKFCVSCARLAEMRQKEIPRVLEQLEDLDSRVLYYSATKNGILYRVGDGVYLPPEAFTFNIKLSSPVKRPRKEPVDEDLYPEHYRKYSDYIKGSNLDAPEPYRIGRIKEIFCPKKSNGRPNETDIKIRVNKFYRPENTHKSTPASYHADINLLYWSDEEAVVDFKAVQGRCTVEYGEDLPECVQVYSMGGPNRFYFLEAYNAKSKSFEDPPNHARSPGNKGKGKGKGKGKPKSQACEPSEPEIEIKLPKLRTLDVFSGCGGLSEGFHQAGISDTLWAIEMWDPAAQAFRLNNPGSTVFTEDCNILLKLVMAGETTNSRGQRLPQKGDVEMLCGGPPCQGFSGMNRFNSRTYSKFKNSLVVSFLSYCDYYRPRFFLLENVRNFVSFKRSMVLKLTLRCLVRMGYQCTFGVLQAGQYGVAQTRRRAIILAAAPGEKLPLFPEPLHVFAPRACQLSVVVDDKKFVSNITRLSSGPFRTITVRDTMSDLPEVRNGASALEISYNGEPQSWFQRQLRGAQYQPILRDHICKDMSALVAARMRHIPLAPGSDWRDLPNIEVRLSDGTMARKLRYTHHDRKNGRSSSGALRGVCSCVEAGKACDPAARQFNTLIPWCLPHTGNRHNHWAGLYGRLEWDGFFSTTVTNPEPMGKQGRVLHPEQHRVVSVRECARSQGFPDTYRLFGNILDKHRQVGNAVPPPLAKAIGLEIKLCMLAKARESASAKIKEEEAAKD

`CCc1c(C#N)c(SCc2ccc(CN)cc2)nc(N2CCCN(C)CC2)c1C#N` [Example 71, 2-((4-(Aminomethyl)benzyl)thio)-4-ethyl-6-(4-methyl-1,4-diazepan-1-yl)pyridine-3,5-dicarbonitrile, 2Hydrochloride]: the EC50 in assay [1] is greater than 31600 nM. Further, the “DNMT1 BioChemical (pIC50 category)” value on DNMT1 (setting [2]) is “D (Category D: ≥6.5)”.
Regarding `CCc1c(C#N)c(SC(C(N)=O)c2ccccc2)nc(N(C)CCOC(=O)[C@@H](N)C(C)C)c1C#N` (some centres unmarked) [Example 275], the EC50 in assay [1] was 316 to 1000 nM. The IC50 at DNMT1 (setting [3]) was 316 to 1000 nM.
Regarding `N#Cc1c(SC(C(N)=O)c2ccccc2)nc(N2CCC(O)C2)c(C#N)c1C1CC1` (centres unmarked) [Example 369, 2-((3,5-Dicyano-4-cyclopropyl-6-(3-hydroxypyrrolidin-1-yl)pyridin-2-yl)thio)-2-phenylacetamide], the EC50 in assay [1] is 1000 to 31600 nM. Also, the “DNMT1 BioChemical (pIC50 category)” value on DNMT1 (setting [2]) is “D (Category D: ≥6.5)”.
In the case of `CCc1c(C#N)c(C)nc(SC(C(N)=O)c2ccccc2)c1C#N` (centres unmarked) [Example 283, 2-((3,5-Dicyano-4-ethyl-6-methylpyridin-2-yl)thio)-2-phenylacetamide], the EC50 in assay [1] is 1000 to 31600 nM. The IC50 is 316 to 1000 nM on DNMT1 (setting [3]); 316 to 1000 nM and 631 nM at DNMT1 (setting [4]).
As to `CCc1c(C#N)c(SC(C(N)=O)c2ccccc2)nc(N2CCC(N3CCC[C@H]3C)CC2)c1C#N` (stereo partly drawn) [Example 451, 2-((3,5-dicyano-4-ethyl-6-(4-((R)-2-methylpyrrolidin-1-yl)piperidin-1-yl)pyridin-2-yl)thio)-2-phenylacetamide], the EC50 in assay [1] was less than 316 nM. In addition, on DNMT1 (setting [2]), the “DNMT1 BioChemical (pIC50 category)” value is reported as “D (Category D: ≥6.5)”.
Taken in the same sequence, the figures for `CCc1c(C#N)c(SC(C(N)=O)c2ccccc2)nc(N(C)CC(=O)NCCCO)c1C#N` (centres unmarked) [Example 677, 2-((6-((2-amino-2-oxo-1-phenylethyl)thio)-3,5-dicyano-4-ethylpyridin-2-yl)(methyl)amino)-N-(3-hydroxypropyl)acetamide] were 316 to 1000 nM and “D (Category D: ≥6.5)”.
For `CCc1c(C#N)c(SCc2ccc(S(N)(=O)=O)cc2)nc(N2CCC(N)CC2)c1C#N` [Example 345, 4-(((6-(4-Aminopiperidin-1-yl)-3,5-dicyano-4-ethylpyridin-2-yl)thio)methyl) benzenesulfonamide], the EC50 in assay [1] is 1000 to 31600 nM. In addition, the “DNMT1 BioChemical (pIC50 category)” value on DNMT1 (setting [2]) is on record as “D (Category D: ≥6.5)”.
Regarding `CCc1c(C#N)c(SC(CC)c2ccc(CNC(C)=O)cc2)nc(N2CCC(N(C)C)CC2)c1C#N` (centres unmarked) [Example 332, N-(4-(1-(3,5-Dicyano-6-(4-(dimethylamino)piperidin-1-yl)-4-ethylpyridin-2-ylthio)propyl)benzyl)acetamide, Trifluoroacetic Acid Salt], the EC50 in assay [1] was 316 to 1000 nM. In addition, the IC50 at DNMT1 (setting [3]) was 1000 to 31600 nM.
For `CCc1c(C#N)c(SCc2ccc3[nH]ccc3c2)nc(N2CCC(N3CCCC3)CC2)c1C#N` [Example 344, 2-(((1H-Indol-5-yl)methyl)thio)-4-ethyl-6-(4-(pyrrolidin-1-yl)piperidin-1-yl)pyridine-3,5-dicarbonitrile], the EC50 in assay [1] was 1000 to 31600 nM. Besides, the IC50 at DNMT1 (setting [3]) was 316 to 1000 nM.
The corresponding values for `CCc1c(C#N)c(SCCN2CCOCC2)nc(SC(C(N)=O)c2ccccc2)c1C#N` (centres unmarked) [Example 201, 2-((3,5-Dicyano-4-ethyl-6-((2-morpholinoethyl)thio)pyridin-2-yl)thio)-2-phenylacetamide] are 316 to 1000 nM and 316 to 1000 nM.
`CCc1c(C#N)c(SCc2ccc(N3CCCS3(=O)=O)cc2)nc(N2CCC(NCC(C)(C)C)CC2)c1C#N` [Example 603, 2-((4-(1,1-dioxidoisothiazolidin-2-yl)benzyl)thio)-4-ethyl-6-(4-(neopentylamino)piperidin-1-yl)pyridine-3,5-dicarbonitrile]: the EC50 in assay [1] is greater than 31600 nM. Besides, at DNMT1 (setting [2]), the “DNMT1 BioChemical (pIC50 category)” value is given as “D (Category D: ≥6.5)”.
Turning to `CCc1c(C#N)c(SCC(N)=O)nc(SC(C(N)=O)c2ccccc2)c1C#N` (centres unmarked) [Example 235, 2-((6-((2-Amino-2-oxoethyl)thio)-3,5-dicyano-4-ethylpyridin-2-yl)thio)-2-phenylacetamide], the EC50 in assay [1] was 316 to 1000 nM. Also, on DNMT1 (setting [3]), the IC50 was 316 to 1000 nM.
With `CCc1c(C#N)c(SC(C(N)=O)c2ccccc2)nc(N2CCC(NC)C(F)C2)c1C#N` (centres unmarked) [Example 507, 2((3,5-dicyano-4-ethyl-6-(3-fluoro-4-(methylamino)piperidin-1-yl)pyridin-2-yl)thio)-2-phenylacetamide], in assay [1], the EC50 is less than 316 nM. Besides, the “DNMT1 BioChemical (pIC50 category)” value at DNMT1 (setting [2]) is listed as “D (Category D: ≥6.5)”.
The corresponding values for `CCc1c(C#N)c(SC(C(N)=O)c2ccccc2)nc(N(C)CC(=O)NO)c1C#N` (centres unmarked) [Example 679, 2-((6-((2-amino-2-oxo-1-phenylethyl)thio)-3,5-dicyano-4-ethylpyridin-2-yl)(methyl)amino)-N-hydroxyacetamide] are 316 to 1000 nM and “D (Category D: ≥6.5)”.
Taken in the same sequence, the figures for `CCc1c(C#N)c(SCc2ccc(N3CCCCS3(=O)=O)cc2)nc(N2CCC(NCC(C)(C)C)CC2)c1C#N` [Example 604, 2-((4-(1,1-dioxido-1,2-thiazinan-2-yl)benzyl)thio)-4-ethyl-6-(4-(neopentylamino)piperidin-1-yl)pyridine-3,5-dicarbonitrile] were greater than 31600 nM and “D (Category D: ≥6.5)”.
In the case of `CCc1c(C#N)c(SC(C(N)=O)c2ccccc2)nc(N2CC(CN)C2)c1C#N` (centres unmarked) [Example 671, 2-((6-(3-(aminomethyl)azetidin-1-yl)-3,5-dicyano-4-ethylpyridin-2-yl)thio)-2-phenylacetamide], the EC50 in assay [1] was less than 316 nM. Also, the “DNMT1 BioChemical (pIC50 category)” value at DNMT1 (setting [2]) is recorded as “D (Category D: ≥6.5)”.
Take `CCc1c(C#N)c(SCc2ccc(CNS(C)(=O)=O)cc2)nc(N2CCCN(C)CC2)c1C#N` [Example 79, N-(4-(((3,5-Dicyano-4-ethyl-6-(4-methyl-1,4-diazepan-1-yl)pyridin-2-yl)thio)methyl)benzyl)methanesulfonamide]: in assay [1], the EC50 was 316 to 1000 nM. For the same molecule, at DNMT1 (setting [2]), the “DNMT1 BioChemical (pIC50 category)” value is recorded as “D (Category D: ≥6.5)”. For the same molecule, at DNMT1 (setting [4]), the IC50 is 316 nM.
Regarding `CCc1c(C#N)c(SCc2ccc(N(C)S(C)(=O)=O)cc2)nc(N2CC[C@H](CNC(=O)CN)C2)c1C#N` [Example 650, (R)-2-amino-N-((1-(3,5-dicyano-4-ethyl-6-((4-(N-methylmethylsulfonamido)benzyl)thio)pyridin-2-yl)pyrrolidin-3-yl)methyl)acetamide], the EC50 in assay [1] is 1000 to 31600 nM. The “DNMT1 BioChemical (pIC50 category)” value at DNMT1 (setting [2]) was “D (Category D: ≥6.5)”.
In the case of `CCc1c(C#N)c(SC(C(N)=O)c2ccccc2)nc(N2CCN(Cc3cncs3)CC2)c1C#N` (centres unmarked) [Example 195, 2-((3,5-Dicyano-4-ethyl-6-(4-(thiazol-5-ylmethyl)piperazin-1-yl)pyridin-2-yl)thio)-2-phenylacetamide], the EC50 in assay [1] was 316 to 1000 nM. Further, the IC50 at DNMT1 (setting [3]) was 316 to 1000 nM.
Consider `CCOc1c(C#N)c(C)nc(SC(C(N)=O)c2ccccc2)c1C#N` (centres unmarked) [Example 342, 2-((3,5-Dicyano-4-ethoxy-6-methylpyridin-2-yl)thio)-2-phenylacetamide], for which the EC50 in assay [1] was greater than 31600 nM. In addition, the IC50 at DNMT1 (setting [3]) is 316 to 1000 nM.
On to `N#Cc1c(SC(C(N)=O)c2ccccc2)nc(N2CC[C@H](N)C2)c(C#N)c1C1CC1` (stereo partly drawn) [Example 115, 2-({6-[(3S)-3-Aminopyrrolidin-1-yl]-3,5-dicyano-4-cyclopropylpyridin-2-yl}sulfanyl)-2-phenylacetamide], for which, in assay [1], the EC50 was less than 316 nM. In addition, the “DNMT1 BioChemical (pIC50 category)” value on DNMT1 (setting [2]) is “D (Category D: ≥6.5)”. For the same molecule, the “average pIC50 against DNMT1” value at DNMT1 (setting [5]) is reported as greater than 6.5. The IC50 at DNMT1 (setting [4]) is 200 nM.
For the molecule `CCOc1c(C#N)c(SCc2ccc(CNC(C)=O)cc2)nc(N2CCCN(C)CC2)c1C#N` [Example 105, N-(4-(((3,5-Dicyano-4-ethoxy-6-(4-methyl-1,4-diazepan-1-yl)pyridin-2-yl)thio)methyl)benzyl)acetamide], the EC50 in assay [1] is 1000 to 31600 nM. Moreover, the “DNMT1 BioChemical (pIC50 category)” value at DNMT1 (setting [2]) is “D (Category D: ≥6.5)”.
In the case of `CCCS(=O)(=O)N1CCN(c2nc(SC(C(N)=O)c3ccccc3)c(C#N)c(CC)c2C#N)CC1` (centres unmarked) [Example 158, 2-((3,5-Dicyano-4-ethyl-6-(4-(propylsulfonyl)piperazin-1-yl)pyridin-2-yl)thio)-2-phenylacetamide], the EC50 in assay [1] is less than 316 nM. Further, the IC50 at DNMT1 (setting [3]) was 316 to 1000 nM.
With `CCc1c(C#N)c(SCc2ccc(N(C)S(C)(=O)=O)cc2)nc(N2CCCN(C)CC2)c1C#N` [Example 355, N-(4-(((3,5-Dicyano-4-ethyl-6-(4-methyl-1,4-diazepan-1-yl)pyridin-2-yl)thio)methyl)phenyl)-N-methylmethanesulfonamide], the EC50 in assay [1] was less than 316 nM. Moreover, the “DNMT1 BioChemical (pIC50 category)” value on DNMT1 (setting [2]) is listed as “D (Category D: ≥6.5)”.
For `CCc1c(C#N)c(S[C@@H](C(N)=O)c2ccc(F)cc2)nc(N2CC[C@H](O)C2)c1C#N` [Example 425], in assay [1], the EC50 is 316 to 1000 nM. Also, the “DNMT1 BioChemical (pIC50 category)” value at DNMT1 (setting [2]) is recorded as “D (Category D: ≥6.5)”. For the same molecule, the “average pIC50 against DNMT1” value at DNMT1 (setting [5]) is given as greater than 6.5. Further, the IC50 on DNMT1 (setting [4]) is 158 nM.
As for `CCNC(=O)NCc1ccc(CSc2nc(N3CCCN(C)CC3)c(C#N)c(CC)c2C#N)cc1` [Example 99, 1-(4-(((3,5-Dicyano-4-ethyl-6-(4-methyl-1,4-diazepan-1-yl)pyridin-2-yl)thio)methyl)benzyl)-3-ethylurea], the EC50 in assay [1] was 1000 to 31600 nM. The IC50 at DNMT1 (setting [3]) and on DNMT1 (setting [4]) was 316 to 1000 nM throughout.
Consider `CCc1c(C#N)c(SC(C(N)=O)c2cncc(C)c2)nc(N2CCCN(C)CC2)c1C#N` (centres unmarked) [Example 266], for which the EC50 in assay [1] was 316 to 1000 nM. Moreover, the IC50 at DNMT1 (setting [3]) is 1000 to 31600 nM; on DNMT1 (setting [4]), ≥ 1000 nM and 2000 nM.
